SMILES strings stand for the structures.

The target in the test is T1, human LPA1 (Homo sapiens, UniProt Q92633).
T1 construct: expressed in transfected cells; host or cells: Chinese hamster ovary (CHO) cells
T1 sequence (Q92633 whole entry): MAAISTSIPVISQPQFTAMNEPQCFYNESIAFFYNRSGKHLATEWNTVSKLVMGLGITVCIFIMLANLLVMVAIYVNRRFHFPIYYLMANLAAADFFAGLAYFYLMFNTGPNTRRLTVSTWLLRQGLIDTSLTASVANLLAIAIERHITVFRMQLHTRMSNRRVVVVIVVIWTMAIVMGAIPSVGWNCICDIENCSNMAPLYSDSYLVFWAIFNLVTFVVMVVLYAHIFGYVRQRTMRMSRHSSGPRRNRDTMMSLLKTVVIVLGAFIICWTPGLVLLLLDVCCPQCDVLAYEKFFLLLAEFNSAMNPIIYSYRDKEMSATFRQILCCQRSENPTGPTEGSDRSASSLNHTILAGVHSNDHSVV
In words: LPA1 functional antagonist assay (LPA-induced calcium flux). It counts as cell-based. To be noted: CHO cells overexpressing human LPA1; inhibition of calcium flux induced by 10 nM LPA; read-out: hLPA1 IC50. The procedure, abridged: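 CHO cells overexpressing human LPA1, loaded with calcium dye, given compound (0.08 nM–5 μM final, 0.5% DMSO) for 20 min at room temperature in HBSS/HEPES with 0.1% fatty-acid-free BSA, then stimulated with 10 nM LPA. IC50 defined as 50% inhibition of LPA-induced calcium flux, from 4-parameter logistic fit.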
A word on the IC50: it is the concentration at which inhibition is half-maximal. Take `CCCCN(C)C(=O)OCc1c(-c2ccc(O[C@H]3CC[C@H](CC(=O)O)C3)c(C)n2)nnn1C` (single isomer, unassigned) [Example 5, (±)-Trans-2-(3-((6-(5-(((butyl(methyl)carbamoyl)oxy)methyl)-1-methyl-1H-1,2,3-triazol-4-yl)-2-methylpyridin-3-yl)oxy)cyclopentyl)acetic Acid]: the IC50 was 952 nM.
Turning to `Cc1nc(-c2nnn(C)c2COC(=O)N(C)CC2CCC2)ccc1O[C@H]1CC[C@H](CC(=O)O)C1` (single isomer, unassigned) [Example 6, (±)-Trans-2-((1,3)-3-((6-(5-((((cyclobutylmethyl)(methyl)carbamoyl)oxy)methyl)-1-methyl-1H-1,2,3-triazol-4-yl)-2-methylpyridin-3-yl)oxy)cyclopentyl) acetic Acid], the IC50 was 11 nM.
The figure for `Cc1nc(-c2nnn(C)c2COC(=O)N(C)CC2CCC2)ccc1O[C@H]1CC[C@H](CC(=O)O)C1` (single isomer, unassigned) [Example 7, (±)-Trans-2-((1,3)-3-((6-(5-((((cyclobutylmethyl)(methyl)carbamoyl)oxy)methyl)-1-methyl-1H-1,2,3-triazol-4-yl)-2-methylpyridin-3-yl)oxy)cyclopentyl) acetic Acid] is 750 nM.
On to `Cc1nc(-c2cnn(C)c2COC(=O)N(C)CC2CCC2)cnc1O[C@H]1CC[C@H](C(=O)O)C1` (single isomer, unassigned) [Example 17], for which the IC50 is 416 nM.
`Cc1nc(-c2cnn(C)c2CNC(=O)OCc2ccccc2)cnc1O[C@H]1CC[C@H](C(=O)O)C1` (single isomer, unassigned) [Example 19, Trans-3-((5-(5-((((benzyloxy)carbonyl)amino)methyl)-1-methyl-1H-pyrazol-4-yl)-3-methylpyrazin-2-yl)oxy)cyclopentanecarboxylic Acid]: the IC50 amounted to 202 nM.
Take `Cc1nc(-c2nnn(C)c2CNC(=O)OCc2ccccc2)ccc1O[C@@H]1CC[C@@H](C(=O)O)C1` (single isomer, unassigned) [Example 21, Trans-3-((6-(5-((((benzyloxy)carbonyl)amino)methyl)-1-methyl-1H-1,2,3-triazol-4-yl)-2-methyl-pyridin-3-yl)oxy)cyclopentane carboxylic acid]: the IC50 stood at 56 nM.
In the case of `Cc1nc(-c2nnn(C)c2COC(=O)N(C)CC2CCC2)cnc1O[C@H]1CC[C@H](CC(=O)O)C1` (single isomer, unassigned) [Example 27, 2-(trans-3-((5-(5-((((cyclobutylmethyl)(methyl)carbamoyl)oxy)methyl)-1-methyl-1H-1,2,3-triazol-4-yl)-3-methylpyrazin-2-yl)oxy)cyclopentyl)acetic Acid], the IC50 turned out to be 260 nM.
In the case of `Cc1nc(-c2nnn(C)c2COC(=O)N(C)CC2CCC2)cnc1O[C@H]1CC[C@H](CC(=O)O)C1` (single isomer, unassigned) [Example 28, 2-(trans-3-((5-(5-((((cyclobutylmethyl)(methyl)carbamoyl)oxy)methyl)-1-methyl-1H-1,2,3-triazol-4-yl)-3-methylpyrazin-2-yl)oxy)cyclopentyl)acetic Acid] it was 3750 nM.
In the case of `Cc1nc(-c2nnn(C)c2COC(=O)N(C)CC2CCC2)ccc1OC[C@@H]1CC[C@H](C(=O)O)C1` (single isomer, unassigned) [Example 31] it was 10.8 nM.
Regarding `Cc1nc(-c2nnn(C)c2COC(=O)N(C)CC2CCC2)ccc1OC[C@H]1CC[C@@H](C(=O)O)C1` (single isomer, unassigned) [Example 32], the IC50 turned out to be 9.7 nM.
The figure for `Cc1noc(-c2ccc(OC3CCC(C(=O)O)C3)cn2)c1CNc1nccc(-c2ccccc2)n1` (single isomer, unassigned) [Example 43] is 50 nM.
In the case of `Cc1noc(-c2ccc(OC3CCC(C(=O)O)C3)cn2)c1CNc1nccc(-c2ccccc2)n1` (single isomer, unassigned) [Example 44] it was 158 nM; in that of `Cc1noc(-c2ccc(OC3CCC(C(=O)O)C3)cn2)c1CNc1nccc(-c2ccccc2)n1` (single isomer, unassigned) [Example 45], 17 nM.
